Measured values from patent US20060003985A1, “Enhancement of sleep with t-type calcium channel antagonists” (priority 2002, published 2006).

Tested on: Sprague Dawley rats
Assay: Rat sleep study with ECoG/EMG telemetry (sleep stage scoring)
Format: in vivo
Settings: averaged over seven nights
Text: This study examined the effects of the T-type calcium channel antagonist Compound A (6-chloro-3,4-dihydro-3-ethyl-4-phenyl-4-ethyl-2(1H)-quinazolinone; PCT WO 93/04047) on sleep by using electrocorticogram (ECoG) or electroencephalographic (EEG) measures to determine the efficacy of the T-type calcium channel antagonistin the altering the states of arousal or sleep.
Eight adult male Sprague Dawley rats (450-550 g; Taconic Farms, Germantown, N.Y.) were subcutaneously implanted with telemetric physiologic monitors (Model F50-EET; Data Sciences International, Arden Hills, Minn.) that were used to simultaneously record both the electrocorticogram (ECoG) and electromyographic (EMG) activities. […]
Following the completion of data collection, all data were scored with automated sleep stage analysis software, Somnologica (Medcare Co.; Buffalo, N.Y.). […] Active wake was assigned to the epoch when movement of the animal was detected within the cage, or when there was an active EMG signal and the EEG consisted of alpha and beta frequency activity. An epoch was scored as light sleep when there was no movement activity, the EMG was moderately active and the EEG consisted of either theta or theta with less than 50% of the epoch showing delta activity. Delta sleep was scored when there was no movement, reduced EMG activity, and the EEG consisted of more than 50% delta wave activity (i.e. 0.5 to 4 Hz). […]

## CCN1C(=O)Nc2ccc(Cl)cc2C1(CC)c1ccccc1 (centres unmarked) [Compound A, 6-chloro-3,4-dihydro-3-ethyl-4-phenyl-4-ethyl-2(1H)-quinazolinone]
FIG. 1, 30 minute bins
  entries into awake relative to vehicle (sleep fragmentation): reduced the entries into awake relative to vehicle
FIG. 2, 30 minute bins
  wake duration relative to vehicle: reduced the wake duration relative to vehicle
